Patent publication US10654847B2, “Substituted 2-(4-heterocyclylbenzyl)isoindolin-1-one analogs as positive allosteric modulators of the muscarinic acetylcholine receptor M1” (Vanderbilt University, priority 2011, dated 2020)

Biological target: T1, mAChR M1 (UniProt P11229)
T1 sequence (P11229 1-460): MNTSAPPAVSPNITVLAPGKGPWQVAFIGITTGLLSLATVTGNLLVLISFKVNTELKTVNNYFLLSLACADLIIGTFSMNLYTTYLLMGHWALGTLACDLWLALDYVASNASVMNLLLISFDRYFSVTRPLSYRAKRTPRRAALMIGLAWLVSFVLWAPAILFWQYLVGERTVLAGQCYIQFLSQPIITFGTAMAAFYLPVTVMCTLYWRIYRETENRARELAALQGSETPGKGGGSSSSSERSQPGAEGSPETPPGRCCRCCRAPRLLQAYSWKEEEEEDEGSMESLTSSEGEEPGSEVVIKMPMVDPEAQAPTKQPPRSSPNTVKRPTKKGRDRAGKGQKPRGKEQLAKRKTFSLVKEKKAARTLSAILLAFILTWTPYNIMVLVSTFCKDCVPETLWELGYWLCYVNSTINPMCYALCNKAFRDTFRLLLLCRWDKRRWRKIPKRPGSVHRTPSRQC
Assay: mAChR M1 cell-based functional assay (calcium mobilization, potentiation of EC20 acetylcholine response)
Conditions: for Emax (%): % ACh maximum at 30 μM, mAChR M1-expressing CHO-K1 cells, calcium flux; for pEC50 / EC50: positive allosteric modulation of EC20 ACh response, mAChR M1 CHO-K1 cells; for pEC50: <5 estimated where no plateau; for EC50: >10 μM estimated where no plateau, read-out: EC50

Structure (SMILES) | Emax (%) | pEC50 | EC50 [µM]
O=C1c2ccccc2CN1Cc1ccc(-n2cncn2)cc1F [Example B126] | <30 | <5.00 | > 10
Cn1ccc2cc(-c3ccc(CN4Cc5ncccc5C4=O)c(F)c3)ccc21 [Example B127] | <30 | <5.00 | > 10
